# In publication PMC10670708, “A New Synthetic Curcuminoid Displays Antitumor Activities in Metastasized Melanoma” (Cells, 2023):
# pIC50: −log10 of the molar value. Values joined by “and” are separate entries in the source; they are usually repeats but may differ in a detail not shown here. Identical values can stand only once. “Also recorded” adds a separate entry of the source.
# Tests used:
# [1] = test system: B16F10 murine melanoma cells; assay: Cytotoxicity assay (resazurin), B16F10; assay type: cell-based; settings: for pIC50: Mus musculus, B16-F10, 48 h, resazurin
# Description: (§1) 3T3 murine fibroblasts (ATCC # CRL-1658), B16F10 murine melanoma cells (ATCC # CRL-6475) and RAW 264.7 murine macrophages (ATCC # TIB-71) were cultured in Dulbecco’s modified eagle’s high-glucose medium (Sigma Aldrich, Darmstadt, Germany) supplemented with 10% fetal bovine serum (FBS), 1% streptomycin–penicillin (Gibco, Darmstadt, Germany) and 1% L-glutamine (Gibco, Germany). AML12 murine hepatocytes (ATCC # CRL-2254) were cultivated in Dulbecco’s modified eagle’s F-12 Ham media supplemented as described above plus 10 µg/mL insulin, 5.5 µg/mL transferrin, 5 ng/mL selenium (all from Thermo Fisher Scientific, Braunschweig, Germany) and 40 ng/mL dexamethasone (Sigma Aldrich). All cells were maintained in a humidified incubator at 37 °C under 5% CO2. Cells were passaged when they reached semi-confluency. For detachment, cells were thoroughly rinsed with Dulbecco’s phosphate-buffered saline (PBS) without calcium and magnesium (Sigma Aldrich) and enzymatically treated using TrypLE™ Express (1×) (Gibco, Germany). FBS-containing medium was added to stop enzymatic activity.
# (§2) A total of 1000 cells were seeded per well in 100 µL medium (for details, see above) using 96-well plates (Greiner Bio-On, Frickenhausen, Germany). After 24 h, curcumin, garcinol (both from Sigma Aldrich), MePip-SF5 and isogarcinol (synthesized as described previously) were added to the wells at concentrations ranging from 0.5 to 64 µM (6 wells per concentration step) and incubated at […] for 48 h. For the preparation of the compounds, drugs were dissolved in DMSO at a concentration of 40 mM for stock solutions and freshly diluted with PBS to a working stock of 4 mM on the day of the experiment.
# (§3) After the incubation, resazurin (Sigma Aldrich) was dissolved in fully supplemented media and added to a final concentration of 25 µg/mL per well. After incubation for 3 h, the absorbance of resorufin (7-hydroxy-3H-phenoxazin-3-one), the enzymatic product of resazurin, in the wells was measured on an Infinite M200Pro spectrofluorometer (TECAN, Männedorf, Switzerland) at an excitation of 570 nm. Based on the determined dose–response curves, IC50 concentrations were calculated by Prism 10 (GraphPad Software Version 10.1.0, La Jolla, CA, USA) using nonlinear regression analysis after conversion of concentrations to logarithmic scale.
# [2] = test system: 3T3 murine fibroblasts; assay: Cytotoxicity assay (resazurin), 3T3; assay type: cell-based; settings: 3T3 fibroblasts; for pIC50: Mus musculus, Fibroblast, 48 h, resazurin
# Description: as §1, §2, §3
# [3] = test system: AML12 murine hepatocytes; assay: Cytotoxicity assay (resazurin), AML12; assay type: cell-based; settings: Mus musculus, 48 h
# Description: as §1, §2, §3
# [4] = test system: RAW 264.7 murine macrophages; assay: Cytotoxicity assay (resazurin), RAW 264.7; assay type: cell-based; settings: Mus musculus, RAW264.7, 48 h
# Description: as §1, §2, §3
# [5] = test system: healthy C57BL/6 mice; assay: In vivo toxicity and dose finding; settings: for maximum tolerated single dose without signs of acute toxicity: intraperitoneal, twice weekly, escalating doses, n = 2, weight loss and abnormal behavior
# Description: Groups of 2 mice (C57BL/6) were challenged with increasing doses of MePip-SF5 or isogarcinol. Stock solutions of drugs (40 mM in DMSO, corresponding to 24 mg/mL for isogarcinol and 21 mg/mL for MePip-SF5) were freshly dissolved in PBS, yielding a total injection volume of 100 µL. Prepared drug solutions were intraperitoneally injected twice weekly (Monday and Friday) over 4 weeks. Drug doses were doubled each week, starting with 15 mg/kg body weight. Physical appearance and body weight were closely monitored. Toxic dose was defined as body weight loss of ≥10% in one week, abnormal behavior or when mice lost ≥5% of their body weight in two consecutive weeks.
# [6] = test system: B16F10 pulmonary melanoma metastases; assay: In vivo antitumor therapy, pulmonary metastasis of B16F10 melanoma; parameters: species or system mice (C57BL/6); settings: for pulmonary tumor load / antitumor effect: MePip-SF5 60 mg/kg, isogarcinol 15 mg/kg i.p. days 8, 11, 14, day 16, vs vehicle
# Description: Eight-weeks-old female C57BL/6 mice (body weight ~20 g) were purchased from Charles River (Sulzfeld, Germany) and kept under 12 h light–dark cycles at 25 °C and 40–60% humidity with humane care. Mice had access to regular chow and water ad libitum. Pulmonary metastases were generated by tail vein injection. A total of 500,000 B16F10 cells were resuspended in sterile 100 µL PBS (cell viability > 90%) and injected into the tail vein of the mice while animals were immobilized in a mouse restrainer (G&P Kunststofftechnik, Kassel, Germany). At 8, 11 and 14 days after melanoma cell injection, groups of mice (n = 10) received an intraperitoneal injection of isogarcinol (15 mg/kg) or MePip-SF5 (60 mg/kg) of 200 µL, while non-treated control mice received equal volumes of PBS. At day 16, mice were sacrificed, and organs (lungs, liver, kidneys and spleen) and blood were sampled for further analysis. Tumor nodules of the left and right lobes of the lungs were macroscopically counted. Pictures of the lungs were taken with a Stemi 2000-C binocular (Carl Zeiss, Jena, Germany), and a mm scale was pictured to create a mm grid in ImageJ software (latest version 1.54f (National Institute of Health, Bethesda, MD, USA). In addition to surface lesion counts, tumors were categorized by their size into categories of <1 mm and <2 mm. Afterwards, both lobes were formalin fixed, paraffin embedded and sectioned (5 µm) to assess intrapulmonary tumor burden. Sections were stained with ready-to-use hematoxylin and eosin staining solution (Carl Roth, Karlsruhe, Germany) for 5 min at room temperature and washed in distilled water and 0.5% acetic acid. Per mouse, lungs were cut into 4–5 parts and then microtome thin-sectioned ([…]). Then, 4 lung sections were randomly selected and analyzed. Sections were tile-scanned with a Leica microscope (DMi8). Pictures were binarized and the percentage of healthy vs. tumor lung tissue measured by ImageJ software using an adjusted threshold setting. Data are expressed as means ± SD per mouse (n = 10 treated group; and n = 11 per control group).
# [7] = test system: C57BL/6 mice; assay: Safety laboratory and biometric parameters in treated metastasis-bearing mice; assay type: in vivo; settings: for tolerability at the applied doses: MePip-SF5 60 mg/kg, isogarcinol 15 mg/kg i.p. ×3; for safety laboratory parameters (LDH, creatinine, urea, ALT, AST, GLDH, γ-GT, Bilirubin, ALP): serum, day 16
# Description: (§4) At 8, 11 and 14 days after melanoma cell injection, groups of mice (n = 10) received an intraperitoneal injection of isogarcinol (15 mg/kg) or MePip-SF5 (60 mg/kg) of 200 µL, while non-treated control mice received equal volumes of PBS. At day 16, mice were sacrificed, and organs (lungs, liver, kidneys and spleen) and blood were sampled for further analysis.
# [8] = test system: metastatic lung tissue transcripts; assay: RT-qPCR of transcripts in lung tissue of treated mice; assay type: in vivo, mice (C57BL/6); settings: MePip-SF5 60 mg/kg, vs controls
# Description: (§5) Total RNA was extracted via phenol extraction from cells using RNA-Solv® reagent (VWR International GmbH, Hessen, Germany) as described in the manual of the manufacturer. RNA was purified with the Monarch® Total RNA Miniprep Kit (New England BioLabs GmbH, Frankfurt am Main, Germany) following the manual of the manufacturer. For RNA extraction from lung tissue, the accessory lobe of the right lung was mechanically homogenized in 1 mL RNA-Solv® reagent using the Tissue Lyser II (Qiagen, Venlo, The Netherlands). A 100 µL amount of the suspension was mixed with 900 µL RNA-Solv® reagent, and total RNA extraction was performed using the Monarch® Total RNA Miniprep Kit as described in the manual of the manufacturer.
# (§6) RNA content of the extracted solution was measured optically using the Infinite® 200 PRO spectrofluorometer (TECAN, Switzerland), and 25 ng RNA per reaction was used in the following analysis.
# (§7) Transcript levels of β-Actin were used to normalize data and to control for RNA integrity. Samples were amplified with the Luna® Universal One-Step RT-qPCR Kit (New England BioLabs GmbH, Frankfurt am Main) and analyzed using a Step One Plus sequence amplification system from LifeTechnologies (Darmstadt, Germany). For normalization, results were expressed as the ratio of the copy numbers of the target gene divided by the number of copies of the housekeeping gene (β-Actin) within individual PCR runs.
# as §4
# [9] = test system: M2-polarized bone-marrow-derived macrophages; assay: Phenotype modulation of M2-polarized BMDM (RT-qPCR); assay type: cell-based, mice (C57BL/6); settings: M2-polarized primary macrophages; for Ccl3 expression: half of RAW IC50
# Description: Bone marrow was extracted from 8-weeks-old C57BL/6 mice (Charles River, Erkrat, Germany) and matured into primary macrophages in the presence of macrophage colony-stimulating factor (M-CSF). Briefly, mice were sacrificed by cervical dislocation, and the femurs and tibias were isolated under sterile conditions and rinsed with cold PBS supplemented with 2% heat-inactivated FBS and 1% penicillin/streptomycin using a 21G needle and a 10 mL syringe (Braun, Kronberg, Germany). Cell suspensions were passed through a 70 µm cell strainer (Milteny, Bergisch Gladbach, Germany). The remaining red blood cells were lysed with red cell lysis buffer (eBioscience, San Diego, CA, USA) and the resulting bone marrow cells resuspended in fully supplemented Iscove’s modified Dulbecco’s medium (Gibco) plus 25 ng/mL M-CSF (from a 1 mg/mL M-CSF stock solution in PBS, M-CSF, ImmunoTools, Friesoythe, Germany). Five million cells were cultured on bacterial culture plates (Sigma-Aldrich, Germany) in a total volume of 10 mL. After 4 days, half of the medium was substituted by fresh medium to yield primary macrophages after an additional 4 days.
# For M2-type polarization, BMDM medium was exchanged for fresh medium containing 20 ng/mL IL-4 and 20 ng/mL IL-13 (ImmunoTools, Germany), and cells were incubated for 24 h. […] IC50 concentrations were calculated as described above for the cytotoxicity assays.
# as §5, §6, §7
# [10] = test system: various solid tumor cell lines (including colon cancer and glioblastoma cells); settings: exceeded the activities of previous curcuminoids; cited from earlier work
# [11] = test system: gemcitabine-resistant pancreatic cancer patients; parameters: method as in PMID 20859741; settings: cited from earlier work
Compound,pIC50 [1],pIC50 [2],pIC50 [3],pIC50 [4],maximum tolerated single dose without signs of acute toxicity [5] [mg/kg],pulmonary tumor load / antitumor effect [6],tolerability at the applied doses [7],"safety laboratory parameters (LDH, creatinine, urea, ALT, AST, GLDH, γ-GT, Bilirubin, ALP) [7]",Ccl3 expression [9],also measured
"CN1C/C(=C\c2ccc(S(F)(F)(F)(F)F)cc2)C(=O)/C(=C/c2ccc(S(F)(F)(F)(F)F)cc2)C1 [MePip-SF5, (E)-1-methyl-3,5-bis(4-pentafluorothiobenzylidene)-4-piperidone]",5.55,6.15,5.64,5.89,60,significantly (p < 0.05) lower; also recorded: robust antitumor effect,well tolerated,remained normal,upregulated,"times more active than parent drug curcumin ([2]; ratio of IC50): 10 ×; could be dosed more highly than isogarcinol ([5]; ratio of tolerated doses): 8 ×; proportion of healthy lung tissue (morphometric, thin sections) ([6]; 60 mg/kg i.p. days 8, 11, 14, vs PBS-treated controls): significantly higher; numbers of macroscopic tumor nodules of size ≤ 1 mm in the lungs ([6]; i.p. days 8, 11, 14, sacrifice day 16, vs controls and isogarcinol-treated mice): significantly (p < 0.05) lower; Bax expression in lungs [8]: remained unchanged; Bcl2 expression in lungs [8]: remained unchanged; Hif1a expression in lungs [8]: did not affect; Il6 expression in lungs [8]: did not affect; Ki67 expression in lungs [8]: trend of reduced expression; Bub1 expression in lungs ([8]; 60 mg/kg): significantly (p < 0.05) reduced; also recorded: significantly downregulated; Ccl3 expression in lungs ([8]; 60 mg/kg): significantly (p < 0.05) reduced; Tnfa expression in lungs ([8]; 60 mg/kg): significantly (p < 0.05) reduced; Inos expression [9]: no effect; Ccl2 expression ([9]; effective dose of 0.6 µM): increased; antiproliferative activity [10]: high antiproliferative activity"
COc1cc(/C=C/C(=O)CC(=O)/C=C/c2ccc(O)c(OC)c2)ccc1O [curcumin],4.86,5.17,4.97,5.26,–,–,–,–,–,1-year survival rate ([11]; 95% confidence interval 4.4–41.4%): 19%; median survival ([11]; 95% confidence interval 109–223 days): 161 days
"C=C(C)[C@@H](CC=C(C)C)C[C@@]12C[C@@H](CC=C(C)C)C(C)(C)[C@@](CC=C(C)C)(C(=O)C(C(=O)c3ccc(O)c(O)c3)=C1O)C2=O [garcinol, reference compound]",5.51,5.06,5.00,5.42,–,–,–,–,not,–
CC(C)=CC[C@H]1C[C@@]23C[C@@H](CC=C(C)C)C(C)(C)[C@@](CC=C(C)C)(C(=O)C(C(=O)c4ccc(O)c(O)c4)=C2OC1(C)C)C3=O [isogarcinol],5.68,5.49,5.37,5.64,15,ineffective; also recorded: failed to show activity,well tolerated,remained normal,increased,stronger activity than original substance garcinol [1]: 40% and ~ 40%
